Experimental data from article PMC10916382, “Repurposing screen identifies novel candidates for broad-spectrum coronavirus antivirals and druggable host targets” (Antimicrobial Agents and Chemotherapy, 2024).
Where a name gives a salt, the structure may show the parent alone. Read-outs that look alike come from different tables or passages of the source. Where a SMILES comes first, the peptide text is derived from it. The star is where a group is joined. Cbz = O=C(OCc1ccccc1)*; CHN2 = [N-]=[N+]=C*

What was measured:
HCoV-229E = test: microbe, parasite or virus in culture; assay type: cell-based, Homo sapiens sapiens
Huh-7.5/F-Luc cells = conditions: for % cell viability at max. dose [5 µM]: at max. dose 5 µM
[1] = Huh-7.5 cells, dose series, maximum tested dose 5 µM
[2] = Calu-3 cells, immunofluorescence imaging
[3] = Anti-SARS-CoV-2 screening on Calu-3 cells: viability [% of control], Calu-3 cells
[4] = Human coronavirus 229E, Huh7.5, read-out: IC50
[5] = HCoV 229E infection, dose series, max. dose 5 µM, read-out: IC50

Row | SMILES | IC50 (HCoV-229E; Human coronavirus 229E, Huh7.5) [nM] | CC50 (µM) (Huh-7.5/F-Luc cells; [1]) | Anti-SARS-CoV-2 screening on Calu-3 cells: intracellular SARS-CoV-2 infection measured via immunofluorescence imaging [% of control] (SARS-CoV-2; [2]) | viability at 48 h, 5 µM (in vitro) [%] | IC50 (HCoV-229E; [5]) [nM] | % cell viability at max. dose [5 µM] (Huh-7.5/F-Luc cells) [%] | Anti-SARS-CoV-2 screening on Calu-3 cells: viability [% of control] (SARS-CoV-2; Calu-3 cells) | also measured
1 | CC1=C(c2ccc(O)cc2)[C@H](c2ccc(OCCN3CCCCC3)cc2)Oc2cc(O)ccc21 [ACOLBIFENE] | 990 | greater than maximum tested dose | 111.23 % of control | 88 |  |  |  | 
2 | CC/C(=C(\c1ccc(O)cc1)c1ccc(OCCN(C)C)cc1)c1ccccc1 [Afimoxifene] | 630 | greater than maximum tested dose | 100.60 % of control |  |  |  |  | viability (in vitro; [3]): 93.4%
3 | CO[C@@H]1[C@H](O)C[C@@H](O[C@@H]2C[C@H](Oc3cc4cc5c(c(O)c4c(O)c3C)C(=O)[C@@H](O[C@H]3C[C@@H](O[C@H]4C[C@@H](O[C@H]6C[C@](C)(O)[C@@H](OC(C)=O)[C@H](C)O6)[C@H](O)[C@@H](C)O4)[C@H](O)[C@@H](C)O3)[C@H]([C@H](OC)C(=O)[C@@H](O)[C@@H](C)O)C5)O[C@H](C)[C@@H]2OC(C)=O)O[C@@H]1C [CHROMOMYCIN A3] |  | greater than maximum tested dose | 60.39 % of control |  |  |  |  | IC50 (HCoV-229E; [4]): 160 nM; viability (in vitro; [3]): 61.3%
4 | CCN(CC)CCN(Cc1ccc(-c2ccc(C(F)(F)F)cc2)cc1)C(=O)Cn1c(SCc2ccc(F)cc2)nc(=O)c2c1CCC2 [Darapladib] | 300 | greater than maximum tested dose | 107.62 % of control | 103 |  |  |  | 
5 | CS[C@H]1SC[C@H]2C(=O)N(C)[C@@H](C(C)C)C(=O)OC[C@@H](NC(=O)c3cnc4ccccc4n3)C(=O)N[C@@H](C)C(=O)N(C)[C@@H]1C(=O)N(C)[C@@H](C(C)C)C(=O)OC[C@@H](NC(=O)c1cnc3ccccc3n1)C(=O)N[C@@H](C)C(=O)N2C [Echinomycin] |  | greater than maximum tested dose | 92.25 % of control |  |  |  |  | IC50 (HCoV-229E; [4]): 100 nM; viability (in vitro): 95.2%
6 | CN(C)c1ccc(C(=C2C=CC(=[N+](C)C)C=C2)c2ccc(N(C)C)cc2)cc1 [Gentian violet, reference compound] | 120 | greater than maximum tested dose | 6.34 % of control | 101 |  |  |  | total cell numbers (SARS-CoV-2; Calu-3 cells, 5 µM, DAPI, relative to DMSO): ≥ 75%; reduction of infected cell numbers (SARS-CoV-2; Calu-3 cells, 5 µM, N protein immunofluorescence, relative to DMSO): more than 50%
7 | CNC1CC(c2ccc(Cl)c(Cl)c2)c2ccccc21 (stereo not drawn) [Indatraline] |  | greater than maximum tested dose | 97.64 % of control |  |  |  |  | IC50 (HCoV-229E; [4]): 830 nM; viability (in vitro; [3]): 88.1%
8 | CN1CCC(c2cn(C)c3ccc(OS(=O)(=O)c4c(F)cccc4F)cc23)CC1 [LY-483518] | 1030 | greater than maximum tested dose | 109.16 % of control | 111 |  |  |  | 
9 | Oc1ccc2c(c1)CC[C@H](c1ccccc1)[C@@H]2c1ccc(OCCN2CCCC2)cc1 [Lasofoxifene] | 750 | greater than maximum tested dose | 119.41 % of control |  |  |  |  | viability (in vitro; [3]): 92.8%
10 | CC(C)(C)NCc1ccc(Nc2ccnc3cc(Cl)ccc23)cc1O [N-tert-Butylisoquine] | 540 | greater than maximum tested dose | 111.10 % of control |  |  |  |  | viability (in vitro; [3]): 106%
11 | COc1cccc2c1C(=O)c1c(O)c3c(c(O)c1C2=O)C[C@@](O)(C(=O)CO)C[C@@H]3O[C@H]1C[C@H](N2CCO[C@H](OC)C2)[C@H](O)[C@H](C)O1 [NEMORUBICIN] |  | greater than maximum tested dose | 46.15 % of control |  |  |  |  | IC50 (HCoV-229E; [4]): 170 nM; viability (in vitro): 16.5%
12 | C1CCC(C(CC2CCCCN2)C2CCCCC2)CC1 (stereo not drawn) [PERHEXILINE] | 670 | greater than maximum tested dose | 116.50 % of control | 97 |  |  |  | 
13 | Cc1nc2c(N3CCNCC3)cccc2n1S(=O)(=O)c1ccccc1 [PF-5212377] | 1150 | greater than maximum tested dose | 99.72 % of control |  |  |  |  | viability (in vitro; [3]): 104%
14 | COc1ccc2cc(S(=O)(=O)N[C@H](CC(=O)N[C@H](Cc3ccc(CN4[C@H](C)CCC[C@@H]4C)cc3)C(=O)N(C)C(C)C)c3ccc4c(c3)OCO4)ccc2c1 [SSR240612] |  | greater than maximum tested dose | 125.70 % of control |  | 530 | 127.22 | 108.83 % of control | 
15 | COc1cc(/C=C/C=C/C(=O)NCCN2CCC(OC(c3ccccc3)c3ccccc3)CC2)ccc1O [TMK-777] |  | greater than maximum tested dose | 102.42 % of control |  | 1130 | 150.43 | 98.98 % of control | 
16 | CC/C(=C(\c1ccccc1)c1ccc(OCCN(C)C)cc1)c1ccccc1 [Tamoxifen citrate] |  |  |  | 102 |  |  |  | CC50 (µM) (Huh-7.5/F-Luc cells): greater than maximum tested dose; Anti-SARS-CoV-2 screening on Calu-3 cells: intracellular SARS-CoV-2 infection measured via immunofluorescence imaging [% of control] (SARS-CoV-2): 106.52 % of control
17 | Cc1cccc(/C=N/Nc2cc(N3CCOCC3)nc(OCCc3ccccn3)n2)c1 [Target 16/Apilimod mesilate] |  | greater than maximum tested dose | 135.01 % of control |  | 200 | 124.74 | 101.93 % of control | 
18 | CC[C@H](NC(=O)[C@H](CS(=O)(=O)CC1CC1)N[C@@H](c1ccc(F)cc1)C(F)(F)F)C(=O)C(=O)NC1CC1 [VBY-825, reference compound] |  | greater than maximum tested dose | 101.42 % of control |  | 210 | 147.45 | 100.68 % of control | antiviral activity against HCoV-229E (HCoV-229E; Huh-7.5/F-Luc cells): antiviral activity
19 | CN(C)CCC(Sc1cccc2ccccc12)c1cccs1 (stereo not drawn) [VUFB 18271] |  | greater than maximum tested dose | 114.60 % of control |  | 930 | 117.62 | 105.83 % of control | 
20 | CC(C)c1ccc(C(=O)c2cccs2)c(SCCCCCCCCN(C)C)n1 [Y 29794] |  | greater than maximum tested dose | 99.31 % of control |  | 330 | 121.37 | 88.61 % of control | 
21 | COC(=O)C1=C(C)NC(C)=C(C(=O)OCCCCNC[C@H](O)COc2ccccc2)C1c1cccc([N+](=O)[O-])c1 (stereo partly drawn) [YM 430] |  | greater than maximum tested dose | 99.21 % of control |  | 820 | 137.51 | 101.27 % of control | 
22 | C=CCc1c(OCCCNCc2ccccc2)ccc2c1[nH]c1ccccc12 [YM-75440] |  | greater than maximum tested dose | 109.36 % of control |  | 730 | 65.35 | 100.37 % of control | 
23 | CC(C)CC(NC(=O)OCc1ccccc1)C(=O)NC(C(=O)NCC(=O)C=[N+]=[N-])C(C)C (stereo not drawn) [Z LVG CHN2] (Cbz-Leu-Val-Gly-CHN2; configuration not given here) |  | greater than maximum tested dose | 105.09 % of control |  |  | 182.31 | 97.82 % of control | IC50 (HCoV-229E; read-out: IC50): 70 nM
24 | CCN(CC)CCOc1ccc(/C(=C(/Cl)c2ccccc2)c2ccccc2)cc1 [enclomiphene citrate] |  |  |  | 102 |  |  |  | CC50 (µM) (Huh-7.5/F-Luc cells): greater than maximum tested dose; Anti-SARS-CoV-2 screening on Calu-3 cells: intracellular SARS-CoV-2 infection measured via immunofluorescence imaging [% of control] (SARS-CoV-2): 91.35 % of control
25 | CC(C)c1ccc2c(c1)C(N1CCN(CCO)CC1)Cc1ccc(F)cc1S2 (stereo not drawn) [isofloxythepin] |  | greater than maximum tested dose | 105.07 % of control |  | 790 | 141.51 | 97.70 % of control | 
26 | CN[C@H]1CC[C@@H](c2ccc(Cl)c(Cl)c2)c2ccccc21 [sertraline hydrochloride] |  |  |  | 101 |  |  |  | CC50 (µM) (Huh-7.5/F-Luc cells): greater than maximum tested dose; Anti-SARS-CoV-2 screening on Calu-3 cells: intracellular SARS-CoV-2 infection measured via immunofluorescence imaging [% of control] (SARS-CoV-2): 122.16 % of control
